Data on 2 compounds can be found in patent publication US8067369B2, “Protection of the retina against laser injury by NAP and related peptides” (Ramot at Tel-Aviv University, priority 2006, dated 2011).

For data set [1], the system named is cells of the central nervous system (CNS). The following applies: cell cultures; cited from earlier work.
For data set [2] the following is noted: rabbit, in vivo. The procedure: Three albino rabbits (each three months old) were used. One animal at a time was anesthetized using Ketamin (40 mg/kg) and Xylazine (8 mg/kg). After the animals were fully anesthetized, a drop of radioactive drug—^14C-NAPVSIPQ (SEQ ID NO:24) (50 microliter; 1.5×10^6 dpm; 37 mCi/mmol; 1 microCi=2×10^6 dpm) was applied once by a micropipette to each eye, i.e., eye drops. The eye drops were prepared to include 2.7 microliter of the ^14C-NAP stock in 400 microliter saline (0.9% NaCl). 10 microliters of this solution were counted to yield 3×10^5 dpm. After application of the drug, eye lids were held gently closed for 10 seconds.
The aqueous humor is the liquid that is found in-between the cornea and lens. Ten microliter samples of aqueous humor were taken from the rabbits' eyes using a tuberculin syringe with a 30 gauge needle.
The vitreous humor is found between the retina and the lens. Vitreous samples were obtained through the pars plana with a 25 gauge needle attached to a Tuberculin syringe. Ten microliter samples of vitreous humor were taken from each eye at designated times as outlined in the attached graphs up to 130 minutes after the initial eye drop application Systemic samples were taken from blood. For results see, e.g., FIGS. 4-6.
The animals were anesthetized for the duration of the […] to avoid animal suffering. A boost of anesthetics was injected about ninety minutes after the initiation of the experiment.

In the next data set the test system is anxiety. The following applies: long term nasal application; cited from earlier work.
Data set [3] has as its system Alzheimer's disease pathology. The following applies: in vivo; cited from earlier work.
For the next data set, the system named is closed head injury. The settings on record: mice; cited from earlier work.
For another data set, the system named is normal aging rats. The settings on record: intranasal administration; cited from earlier work.
Another data set relates to ischemic injury. The settings on record: after ischemic injury; cited from earlier work.
The subject of data set [4] is laser-induced retinal damage. In words: Argon laser retinal lesions in rats, histopathologic and morphometric evaluation. The data set is classed as in vivo, rat. How it is done:
Pigmented DA rats (strain DA/Ola/Hsd, Harlan OCAL Ltd., Blackthorn Bicester Oxon, England; raised in Tel-Aviv University animal house), 90 days old, were used for the experiments. The posterior segment of the eye of this strain has a uniform pigmentation, making it particularly useful for retinal laser injury production. The animals were fed ad libitum with a normal laboratory diet and maintained on a 12-h light/dark cycle. They were anesthetized by intraperitoneal injections of ketamine (40 mg/kg) and xylasine (8 mg/kg) before each experimental procedure.
After dilatation of the pupil with sterile drops of Topicamid 0.5% (Midramid, Fisher), a contact lens, specially crafted to fit a rat eye for retinal laser irradiation, was attached to the cornea with 2.5% hydroxypropyl methylcellulose. Six laser retinal lesions were produced in each eye of each of the anesthetized (ketamine (40 mg/kg) and xylasine (8 mg/kg)) rats by argon laser (Novus 2000 Coherent, CA) two disc diameters away from the optic disc. The laser beam characteristics were 514 & […], 200 μm, 0.1 W, 0.05 second. These laser settings were found in previous studies to result in lesions of a uniform size and configuration, involving mainly the outer retinal layers.
The animals of the experimental groups I and III underwent systemic intravenous injection of NAP or saline immediately after the laser photocoagulation, NAP was injected in the amount of 60 μg per animal (about 280-300 μg/kg) in a volume of 0.5 ml of saline. The animals of the control group got an injection of 0.5 ml of saline. The injections were performed in the femoral vein of the right leg of each animal after the vessel was uncovered and isolated in situ. The wound was sewed up after the injection with surgical silk.
The animals of the experimental groups II and IV underwent NAP or saline injection immediately after the laser photocoagulation. Each eye of each anesthetized rat was punctured with a 30-gauge needle of a Hamilton syringe at the temporal posterior part of the retina. Then, 5 μl of NAP saline solution at a concentration of 2.5 pg/μl was injected into the vitreous body of the experimental group. The same amount of saline (5 μl) was injected intravitreally in the animals of the control groups. All of the procedures were controlled visually via a surgical microscope.
The effect of treatment in all groups was evaluated at three time points: 3, 20, and 60 days after the primary injury (n=6 at each time point in each group). The animals were euthanized by a lethal dose of pentobarbitone and their eyes enucleated and fixed in 2% glutaraldehyde. Using a surgical microscope, the posterior segment of the fixed eye was dissected into tissue samples, each incorporating one retinal laser lesion. The samples were embedded in epoxy resin and the blocks sectioned serially (1 μm) with an ultramicrotome and stained with toluidine blue.
The microscopic images were digitalized by SmartCapture VP software (Digital Scientific, USA) and enhanced by IPLab software (Scanalytics, USA). Then the images were segmented for photoreceptor clarification by IPLab software (Scanalytics, USA) and the photoreceptors were counted.
Morphometric measurements were performed on each lesion in order to evaluate the severity of the argon laser injury. The borders of the lesion area were established at the most distant point from the middle of the lesion where the cytoarchitecture changes in the pigment epithelium, outer nuclear, inner nuclear, or ganglion cell layers of the retina could be distinguished. The measurements performed were: 1) Diameter of the whole lesion, 2) Cell count in the outer nuclear layer of the whole lesion area, and 3) Cell count in the outer nuclear layer at the 100 μm center of the lesion
In order to evaluate the extent of photoreceptor cell loss, results were compared to the cell density in the intact regions of the outer nuclear retinal layer located 100 μm peripherally from the edges of the lesion. […]

The next data set deals with fetal alcohol syndrome. The following applies: in vivo; cited from earlier work.
In data set [5] the test system is neurons of the central nervous system. The following applies: in-vitro assays and in vivo disease models; cited from earlier work.

No end group written: not given here.

With `CC[C@H](C)[C@H](NC(=O)[C@H](CO)NC(=O)[C@@H](NC(=O)[C@@H]1CCCN1C(=O)[C@H](C)NC(=O)[C@@H](N)CC(N)=O)C(C)C)C(=O)N1CCC[C@H]1C(=O)N[C@@H](CCC(N)=O)C(=O)O` [NAP, Asn-Ala-Pro-Val-Ser-Ile-Pro-Gln], the “concentration showing neuroprotective activity” value in data set [1] is listed as “femtomolar concentrations”. Besides, in [2], the “maximal incorporation into vitreous samples” value came to 60 dpm/10 microliters, the “peak of radioactive incorporation into the aqueous humor” value is 150 dpm/10 microliter, the “radioactivity at the aqueous humor at the 10 minute point” value is around 60 dpm/10 microliters and the “systemic exposure (blood radioactivity)” value is 1-12 dpm. Further, in data set [2], the “time of maximal incorporation into vitreous samples” value was 10 min, the “time of peak radioactive incorporation into the aqueous humor” value amounted to 50 min and the “time the aqueous humor peak was maintained” value came out at 70 min. In addition, the anxiety result with anxiety is reported as “decreased anxiety”. In addition, the “effect in Alzheimer's disease pathology models” value in data set [3] is given as “protective”. Also, the “damage caused by closed head injury” value in the data set on closed head injury is given as “reducing damage”. Further, the “performance in the Morris water maze” value with normal aging rats was “improved performance”. In the data set with ischemic injury, the infarct volume entry is “reduced” and the motor function deficits result is reported as “reduced”. In [4] (intravitreal NAP 5 μl of 2.5 pg/μl, 3 days after the laser session), the “neuroprotective effect against laser-induced retinal damage” value is reported as “significant neuroprotective effect”. In addition, the “neuroprotective effect against laser-induced retinal damage” value in [4] (intravitreal NAP, 20 and 60 days after the laser session) is “not after 20 and 60 days”. For the same compound, the mean lesion diameter result in [4] (intravitreal NAP, 3 days after the laser injury) is “reduced”. Besides, the mean lesion diameter result in data set [4] (intravitreal NAP, after 20 days, vs control groups) is given as “greater than in control groups”. Moreover, the “photoreceptor loss (morphological evaluation of the lesions)” value in data set [4] (systemic intravenous NAP 60 μg per animal immediately after laser, 3 and 20 days after injury, vs saline control) is “attenuation”. Also, the “lesion diameter (morphological evaluation of the lesions)” value in data set [4] (systemic intravenous NAP 60 μg per animal, 3 and 20 days after injury, vs saline control) is listed as “attenuation”. For the same compound, in data set [4] (systemic intravenous NAP, 3, 20 and 60 days after injury), the “number of cells lost, whole and central areas of lesion” value was “reduced”. Besides, the “diameter of the lesion” value in data set [4] (systemic intravenous NAP, 20 and 60 days after the injury) is recorded as “significant ameliorative effects (P<0.01)”. Besides, the “neuroprotective effect (photoreceptor loss and lesion diameter)” value in data set [4] (systemic intravenous NAP, 60 days after the laser session) is on record as “also manifested, although to a lesser extent”. In data set [4] (systemic intravenous NAP, sixty days after photocoagulation only), the “significance of reduction in number of cells lost” value is on record as “statistically significant (P<0.01)”. For the same compound, in the data set with fetal alcohol syndrome, the fetal demise result is recorded as “reducing” and the growth restrictions entry was “reducing”.

On to SALLRSIPA, for which, in data set [5], the “survival of neurons in response to various insults” value is “keep neurons of the central nervous system alive”.
